The record followed here is patent US20120190707A1, “SELECTIVE INHIBITORS OF AKT AND METHODS OF USING SAME” (priority 2008, published 2012).

In one series the target is Akt1 (Homo sapiens, UniProt P31749). Nature of the series: Akt1 inhibition assay using GSK-3 as a substrate (immuno-blotting with anti-phospho-GSK-3α/β). The format is biochemical. As to the method:
Here the top 4000 compounds out of 50000 docked compounds were selected using FlexX and Drugscore (BioSolvIT). The top 4000 docked structures were further evaluated and ranked according to Goldscore and Chemscore functions (CSCORE). A list of common 200 compounds was then selected among ranked top 700 compounds according to both scoring functions (FIG. 1B). […] The remaining 100 compounds were experimentally tested up to 30 μM against Akt1. The inhibitory activity was evaluated for the selected compounds by using Z'-LYTE™ kit assay provided by Invitrogen Corporation (19). […] Corning® 384-well low volume plates (20 μl) were used. The fluorescent-enzymatic assay has been performed following the protocol provided by Invitrogen Corporation, using a fluorescent plate reader (Victor2, Perkin-Elmer). […] C) Lineweaver-Burk Km and Km(app) evaluation for Akt1. Each measurement was performed in triplicate. […] The Ki and the Km(app) were calculated at fixed inhibitor concentrations, as reported in the text. All constant values were definitely evaluated by fitting the data to the Lineweaver-Burk plot; D) Akt1 inhibition assay using GSK-3 as a substrate. Comparison of compounds 1 and 2 (Table 1) with H89 at 10 μM. E) Dose response for compound 1. […]

The next series concerns the target Abl1 (Homo sapiens, UniProt P00519). Nature of the series: Non related protein kinase Abl1 inhibition. Particulars: concentrations up to 100 μM. In kind it is biochemical. The source says:
In addition, we tested our compounds against a non related protein kinase, Abl1 (22), which is a tyrosine kinase under investigation in our laboratory.
(§1) We recently reported on the direct evaluation of a number of in silico approaches to identify AKT inhibitors (Forino et al., 2005) We achieved experimental validation of selected compounds using both a fluorescence-based enzymatic assay and a substrate phosphorylation assay involving the protein GSK-3 (Forino et al., 2005). Briefly, the virtual docking approach consists of selecting the top 4,000 out of 50,000 docked compounds, using a variety of computational docking approaches, including a consensus score among two different scoring functions (Forino et al., 2005). Of those, 100 compounds were selected based on ranking and favorable docking geometry.

In the next series the test system is JNK. Nature of the series: Activity of other protein kinases: JNK. The format is biochemical. Particulars: 100 micro.M.
Description: as §1

The subject of another series is PI3K. Nature of the series: Activity of other protein kinases: PI3K. Conditions: 100 micro.M. In kind it is biochemical.
Description: as §1

In another series the test system is PC3 prostate tumor cells. Nature of the series: Cell death by trypan blue staining, PC3. Conditions: PC3, 5 micro.M, within 4 hours. The format is cell-based. As to the method: (§2) (A) MeWo melanoma cells growing in 60 mm plates were treated with the indicated concentration of the inhibitor for 4 h before proteins were prepared for western blot analysis using the indicated antibodies. Level of beta.actin was monitored as a control for protein loading. (B) Experiment was performed as indicated in panel A, except that cells were harvested after 24 h for analysis of cell death using trypan blue staining. (C) Melanoma (MeWo), prostate cancer (PC3) and breast cancer (MCF7) cells were treated with BI-69A11 at the indicated concentrations; levels of AKT phosphorylation or expression were assessed 4 h later. The level of beta.actin used as a control for protein loading. (D) Experiment was performed as indicated in panel C, except that cells were harvested after 4 h for analysis of cell death using trypan blue staining.
(§3) For the proliferation assays, cells were treated as described above. However, instead of scraping cells into the serum-free medium, floating cells were collected in a 15 mL centrifuge tube whereas adherent cells trypsinized gently. The total cell population was pooled and counted on a hemocytometer after staining with Trypan Blue.

For the next series, the system named is MCF7 cells. Description: Cell death by trypan blue staining, MCF7. In kind it is cell-based. Conditions: 5 micro.M, 4 hours. On the procedure:
as §2, §3

The test system of another series is PARP. Nature of the series: PARP cleavage in 903 and 29-1 cells. The format is cell-based, human. Conditions: 2, 4 and 6 hours; listed as BI-69A11. As to the method:
(A) 903 and 29-1 cells were exposed to different concentrations of BI-69A11 or UV light as a positive control and the percentage of cell death determined by trypan blue exclusion assay. (B) PARP cleavage was determined in 903 and 29-1 cells after treatment with BI-69A11 at 2, 4 and 6 hours.
Since AKT activity is important for tumor cell survival, its inhibition is expected to result in cell death. We thus monitored cell death in melanoma cells that were treated with BI-69A11.
For western blotting techniques, cells were lysed in RIPA buffer containing 50 mM TrisHCl pH7.4, 150 mM NaCl, 2 mM EDTA, 1% NP-40, 0.1% SDS. The protein concentration was estimated using the Coomassie Protein assay kit (Thermo Scientific, Rockford, Ill., USA). Equal concentrations of cell lysate (30-50 ug) were resolved on a 10% polyacrylamide gel and transferred onto Nitrocellulose membrane (GE Amersham). Membranes were blocked for 1-2 hours in either 3% BSA or 5% nonfat dried milk in Tris-buffered saline containing 0.05% Tween 20. Primary antibody incubations were performed overnight at 4° C. with shaking. The blots were washed followed by incubation with a secondary antibody incubation for 1 hour at room temperature. After washing, the blots were scanned on the Odyssey Licor scanner at the appropriate wavelength and the image was captured using the Odyssey software.

A further series in a line: Initial MTD assays. Conditions: in vivo, 5 mg/kg; data not shown; read-out: dose at which MTD assays revealed toxicity.

“Also recorded” adds a separate entry of the source.

Chain of Akt1 (P31749 whole entry): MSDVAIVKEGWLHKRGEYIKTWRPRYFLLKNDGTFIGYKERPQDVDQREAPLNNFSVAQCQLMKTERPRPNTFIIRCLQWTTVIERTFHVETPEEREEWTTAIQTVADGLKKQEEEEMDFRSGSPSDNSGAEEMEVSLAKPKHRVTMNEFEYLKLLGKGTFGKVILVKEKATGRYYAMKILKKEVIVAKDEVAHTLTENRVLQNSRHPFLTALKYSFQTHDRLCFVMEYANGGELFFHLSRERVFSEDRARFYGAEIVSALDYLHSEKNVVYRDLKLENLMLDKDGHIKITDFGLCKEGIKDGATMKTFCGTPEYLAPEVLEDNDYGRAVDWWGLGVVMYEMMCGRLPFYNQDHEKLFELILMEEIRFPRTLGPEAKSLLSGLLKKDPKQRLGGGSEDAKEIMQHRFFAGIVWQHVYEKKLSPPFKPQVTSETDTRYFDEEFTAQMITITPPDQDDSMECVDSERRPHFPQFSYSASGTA
Chain of Abl1 (P00519 whole entry, species assumed): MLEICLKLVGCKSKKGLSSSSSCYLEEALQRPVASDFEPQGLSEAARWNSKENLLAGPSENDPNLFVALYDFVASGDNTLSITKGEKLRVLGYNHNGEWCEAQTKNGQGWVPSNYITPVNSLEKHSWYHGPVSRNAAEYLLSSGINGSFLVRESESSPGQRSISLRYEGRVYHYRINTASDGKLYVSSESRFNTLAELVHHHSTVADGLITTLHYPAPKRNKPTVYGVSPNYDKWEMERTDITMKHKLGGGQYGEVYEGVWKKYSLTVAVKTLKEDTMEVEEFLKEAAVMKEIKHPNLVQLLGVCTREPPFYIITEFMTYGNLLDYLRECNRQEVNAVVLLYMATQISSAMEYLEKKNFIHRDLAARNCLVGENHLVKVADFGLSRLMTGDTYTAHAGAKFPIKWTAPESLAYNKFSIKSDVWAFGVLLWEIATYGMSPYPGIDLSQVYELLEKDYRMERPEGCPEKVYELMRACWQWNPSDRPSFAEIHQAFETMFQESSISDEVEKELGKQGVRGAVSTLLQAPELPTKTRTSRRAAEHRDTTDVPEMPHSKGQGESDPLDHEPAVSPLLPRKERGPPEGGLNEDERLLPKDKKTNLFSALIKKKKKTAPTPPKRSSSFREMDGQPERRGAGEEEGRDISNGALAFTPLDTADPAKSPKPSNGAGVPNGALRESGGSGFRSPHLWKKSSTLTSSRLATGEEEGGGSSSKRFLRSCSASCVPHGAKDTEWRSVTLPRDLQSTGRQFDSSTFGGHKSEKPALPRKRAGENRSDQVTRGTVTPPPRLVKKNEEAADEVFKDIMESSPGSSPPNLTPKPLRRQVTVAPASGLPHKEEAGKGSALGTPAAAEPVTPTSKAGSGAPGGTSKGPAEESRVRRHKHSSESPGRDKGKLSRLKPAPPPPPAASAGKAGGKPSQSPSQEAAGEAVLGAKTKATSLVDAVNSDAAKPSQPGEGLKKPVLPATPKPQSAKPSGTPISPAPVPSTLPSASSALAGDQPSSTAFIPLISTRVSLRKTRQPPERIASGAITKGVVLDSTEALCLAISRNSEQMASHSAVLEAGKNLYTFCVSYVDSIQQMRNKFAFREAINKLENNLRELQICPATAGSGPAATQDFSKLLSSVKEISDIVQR

Consider `O=C(/C=C/c1nc2ccccc2[nH]1)c1c(O)nc2ccc(Cl)cc2c1-c1ccccc1` [Compound 2, (E)-3-(3-(1H-benzo[d]imidazol-2-yl)acryloyl)-6-chloro-4-phenylquinolin-2(1H)-one], for which the “inhibition of GSK-3 phosphorylation” value against Akt1 was “low micromolar range”. Further, at Abl1, the “inhibition of Abl1” value was “did not affect”. For the same compound, the “effect on JNK activity” value with JNK was “did not affect”. Further, the “effect on PI3K activity” value in the series on PI3K was “did not affect”. The cell death entry in the series with PC3 prostate tumor cells is given as “about 25%”. The “viability of MCF7 cells” value in the series with MCF7 cells is “did not affect”. Further, in the series on PARP, the “PARP cleavage, 903 cells compared with 29-1” value is “more pronounced in the UAC903 cells; also recorded: Increased PARP cleavage”. For the same compound, the MTD in the series “Initial MTD assays” is 5 mg/kg.
